# Reference: publication PMC12472888 (Molecules, 2025)
# Tests used:
# Assay type in all cases: biochemical
# ovine COX-1 = target: T1, ovine COX-1 (Ovis aries, UniProt P05979); assay: Cayman COX inhibitor screening kit, prostanoid enzyme immunoassay
# T1 construct: gene PTGS1; homodimer
# T1 sequence (P05979 25-600): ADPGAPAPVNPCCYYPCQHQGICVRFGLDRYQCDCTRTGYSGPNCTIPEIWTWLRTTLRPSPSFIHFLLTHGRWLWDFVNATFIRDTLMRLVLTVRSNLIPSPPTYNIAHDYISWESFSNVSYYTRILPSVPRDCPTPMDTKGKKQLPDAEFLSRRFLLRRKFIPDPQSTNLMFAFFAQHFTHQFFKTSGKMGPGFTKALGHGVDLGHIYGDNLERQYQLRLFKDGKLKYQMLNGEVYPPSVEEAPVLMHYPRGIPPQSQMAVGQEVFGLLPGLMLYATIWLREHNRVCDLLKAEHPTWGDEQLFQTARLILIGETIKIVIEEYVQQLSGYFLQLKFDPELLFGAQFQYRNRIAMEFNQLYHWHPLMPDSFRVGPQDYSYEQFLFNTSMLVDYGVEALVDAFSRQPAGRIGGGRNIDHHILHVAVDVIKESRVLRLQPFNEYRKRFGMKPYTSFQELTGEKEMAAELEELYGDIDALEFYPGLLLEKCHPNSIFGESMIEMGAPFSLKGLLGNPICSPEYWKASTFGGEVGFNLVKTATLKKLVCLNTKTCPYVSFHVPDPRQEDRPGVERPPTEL
# Source text: Cayman COX inhibitor screening kit, prostanoid enzyme immunoassay on ovine COX-1
# [1] = target: T2, lipoxygenase type I-B from soybean (Glycine max, UniProt P08170); assay: UV absorbance at […] nm, linoleate oxidation
# T2 construct: gene LOX1.1; commercial native soybean enzyme (Sigma type I-B), full length
# T2 sequence (P08170 1-839): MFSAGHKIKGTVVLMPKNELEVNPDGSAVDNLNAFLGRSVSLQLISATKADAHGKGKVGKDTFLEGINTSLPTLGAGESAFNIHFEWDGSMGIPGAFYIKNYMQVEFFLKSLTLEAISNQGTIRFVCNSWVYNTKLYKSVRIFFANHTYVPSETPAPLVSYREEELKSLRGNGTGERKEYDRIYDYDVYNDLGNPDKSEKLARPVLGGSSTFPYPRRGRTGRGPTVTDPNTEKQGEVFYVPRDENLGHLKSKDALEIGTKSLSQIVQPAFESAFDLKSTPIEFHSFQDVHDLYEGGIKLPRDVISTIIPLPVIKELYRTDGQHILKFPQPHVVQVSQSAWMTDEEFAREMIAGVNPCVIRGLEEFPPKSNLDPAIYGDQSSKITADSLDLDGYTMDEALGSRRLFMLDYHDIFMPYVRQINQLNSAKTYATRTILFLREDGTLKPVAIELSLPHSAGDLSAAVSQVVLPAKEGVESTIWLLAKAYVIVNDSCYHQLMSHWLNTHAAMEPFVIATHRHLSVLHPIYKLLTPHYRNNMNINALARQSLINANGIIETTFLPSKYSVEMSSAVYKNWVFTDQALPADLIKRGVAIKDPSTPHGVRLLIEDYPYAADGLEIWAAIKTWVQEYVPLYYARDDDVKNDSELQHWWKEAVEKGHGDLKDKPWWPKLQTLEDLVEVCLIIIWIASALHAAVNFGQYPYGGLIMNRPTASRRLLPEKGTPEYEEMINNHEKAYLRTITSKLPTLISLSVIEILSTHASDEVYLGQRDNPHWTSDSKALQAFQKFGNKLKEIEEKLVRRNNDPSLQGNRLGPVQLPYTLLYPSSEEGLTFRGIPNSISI
# human recombinant COX-2 = target: T3, human recombinant COX-2 (Homo sapiens, UniProt P35354); assay: Cayman COX inhibitor screening kit, prostanoid enzyme immunoassay
# T3 construct: gene PTGS2; homodimer; docking used mouse COX-2 (not this entry)
# T3 sequence (P35354 18-604): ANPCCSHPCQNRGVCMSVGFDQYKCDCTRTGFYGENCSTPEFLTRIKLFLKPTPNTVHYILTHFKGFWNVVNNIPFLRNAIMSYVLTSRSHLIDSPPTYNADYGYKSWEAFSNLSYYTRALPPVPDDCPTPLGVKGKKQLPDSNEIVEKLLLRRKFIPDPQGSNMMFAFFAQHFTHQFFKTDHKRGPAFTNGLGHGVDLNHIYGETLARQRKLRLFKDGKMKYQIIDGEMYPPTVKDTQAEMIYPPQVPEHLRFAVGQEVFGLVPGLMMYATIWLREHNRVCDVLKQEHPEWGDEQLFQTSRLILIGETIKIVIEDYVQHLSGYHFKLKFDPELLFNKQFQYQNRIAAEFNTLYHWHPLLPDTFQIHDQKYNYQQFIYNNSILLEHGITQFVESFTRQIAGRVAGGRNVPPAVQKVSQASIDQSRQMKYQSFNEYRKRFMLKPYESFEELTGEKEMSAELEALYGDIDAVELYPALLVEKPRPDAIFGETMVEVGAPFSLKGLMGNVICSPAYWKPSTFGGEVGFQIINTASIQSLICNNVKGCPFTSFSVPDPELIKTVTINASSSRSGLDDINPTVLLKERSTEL
# Source text: Cayman COX inhibitor screening kit, prostanoid enzyme immunoassay on human recombinant COX-2
SMILES,inhibition at 0.05 µM (ovine COX-1),IC50 [1],inhibition at 0.05 µM (human recombinant COX-2)
"CC(C)Cc1ccc(C(C)C(=O)N2CCC[C@H]2C(=O)OCCO[N+](=O)[O-])cc1 (stereo partly shown) [compound 6, 2-(Nitrooxy)ethyl-1-(2-(4-isobutylphenyl)propanoyl)pyrrolidine-2-carboxylate]",–,264 µM,–
"COc1ccc2cc([C@H](C)C(=O)NCCC(=O)OCCO[N+](=O)[O-])ccc2c1 [compound 7, 2-(Nitrooxy)ethyl-3-(2-(6-methoxynaphthalen-2-yl)propanamido)propanoate]",–,51 µM,–
"COc1ccc2cc([C@H](C)C(=O)N3CCC[C@H]3C(=O)OCCO[N+](=O)[O-])ccc2c1 [compound 8, 2-(Nitrooxy)ethyl-1-(2-(6-methoxynaphthalen-2-yl)propanoyl)pyrrolidine-2-carboxylate]",–,184 µM,–

# More lines, now with the values ahead:
inhibition at 0.05 µM (ovine COX-1),IC50 [1],inhibition at 0.05 µM (human recombinant COX-2),SMILES
67%,78 µM,95%,"CC(C)Cc1ccc(C(C)C(=O)NCCC(=O)OCCO[N+](=O)[O-])cc1 (racemic) [compound 5, 2-(Nitrooxy)ethyl-3-(2-(4-isobutylphenyl)propanamido)propanoate]"
73%,–,–,"COc1ccc2cc([C@H](C)C(=O)NCCC(=O)OCCO)ccc2c1 [compound 9, 2-Hydroxyethyl 3-(2-(6-methoxynaphthalen-2-yl)propanamido)propanoate]"
